In ChEMBL document CHEMBL1268978, “Arylpiperazine-containing pyrimidine 4-carboxamide derivatives targeting serotonin 5-HT(2A), 5-HT(2C), and the serotonin transporter as a potential antidepressant” (Bioorg Med Chem Lett, 2010):
Activity calls are given as the source filed them. No cut-off for these calls is given here.

What was measured:
Mus musculus [1] = test: Toxicity in mouse assessed as induction of hyperactivity measured for 30 mins at 25 mg/kg, ip measured by spontaneous locomotor activity assay; assay type: organism-based; parameters: dose 25 mg/kg, route intraperitoneal; details: in vivo, 0.5 h
[2] = target: 5-hydroxytryptamine receptor 2A (Homo sapiens, UniProt P28223); test: Displacement of [3H]ketanserin from human recombinant 5HT2A receptor expressed in CHO-K1 cells; assay type: cell-based
[3] = target: T1, 5-hydroxytryptamine receptor 2C (Homo sapiens, UniProt P28335); test: Displacement of [3H]mesulergine from human recombinant 5HT2C receptor expressed in CHO-K1 cells; assay type: cell-based
T1 sequence (P28335 whole entry): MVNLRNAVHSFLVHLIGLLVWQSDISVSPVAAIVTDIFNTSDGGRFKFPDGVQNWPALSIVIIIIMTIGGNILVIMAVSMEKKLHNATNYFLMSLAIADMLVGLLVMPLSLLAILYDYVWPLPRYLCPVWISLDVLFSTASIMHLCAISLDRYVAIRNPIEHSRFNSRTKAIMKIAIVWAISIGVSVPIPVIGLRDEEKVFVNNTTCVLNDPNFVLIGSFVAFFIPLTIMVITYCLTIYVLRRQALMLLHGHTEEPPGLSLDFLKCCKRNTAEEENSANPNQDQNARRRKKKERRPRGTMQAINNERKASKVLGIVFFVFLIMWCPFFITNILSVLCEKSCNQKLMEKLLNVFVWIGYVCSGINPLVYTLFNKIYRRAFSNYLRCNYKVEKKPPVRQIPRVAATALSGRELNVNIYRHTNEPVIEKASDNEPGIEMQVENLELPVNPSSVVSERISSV

[4] = target: Sodium-dependent serotonin transporter (Homo sapiens, UniProt P31645); test: Displacement of [3H]imipramine from human recombinant SERT receptor expressed in HEK293 cells; assay type: cell-based
Mus musculus [5] = test: Toxicity in mouse assessed as induction of hypoactivity measured for 30 mins at 25 mg/kg, ip measured by spontaneous locomotor activity assay; assay type: organism-based; parameters: dose 25 mg/kg, route intraperitoneal; details: in vivo, 0.5 h
Mus musculus [6] = test: Antidepressant activity in mouse at 25 mg/kg, ip administered 30 mins before test by forced swimming test; assay type: functional, organism-based; parameters: dose 25 mg/kg
[7] = target: Voltage-gated inwardly rectifying potassium channel KCNH2 (Homo sapiens, UniProt Q12809); test: Inhibition of human ERG channel
Cytochrome P450 1A2 = target: T2, Cytochrome P450 1A2 (Homo sapiens, UniProt P05177); test: Inhibition of CYP1A2; assay type: ADME
T2 sequence (P05177 whole entry): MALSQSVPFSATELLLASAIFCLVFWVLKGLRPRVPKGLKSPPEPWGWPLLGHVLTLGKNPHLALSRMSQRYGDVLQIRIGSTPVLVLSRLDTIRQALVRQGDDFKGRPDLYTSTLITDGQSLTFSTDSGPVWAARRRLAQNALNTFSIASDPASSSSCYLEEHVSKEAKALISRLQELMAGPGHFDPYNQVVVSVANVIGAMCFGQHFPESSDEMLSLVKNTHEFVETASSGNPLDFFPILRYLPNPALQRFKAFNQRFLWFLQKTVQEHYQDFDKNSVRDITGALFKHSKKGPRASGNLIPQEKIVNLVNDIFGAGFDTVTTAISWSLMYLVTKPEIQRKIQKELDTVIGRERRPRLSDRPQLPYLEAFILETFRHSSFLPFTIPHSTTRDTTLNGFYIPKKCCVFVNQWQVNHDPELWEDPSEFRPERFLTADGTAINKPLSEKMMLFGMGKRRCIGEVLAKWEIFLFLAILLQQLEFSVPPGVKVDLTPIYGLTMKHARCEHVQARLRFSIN

Cytochrome P450 2D6 = Cytochrome P450 2D6 (Homo sapiens, UniProt P10635); test: Inhibition of CYP2D6; assay type: ADME
Cytochrome P450 2C9 = Cytochrome P450 2C9 (Homo sapiens, UniProt P11712); test: Inhibition of CYP2C9; assay type: ADME
Cytochrome P450 3A4 = Cytochrome P450 3A4 (Homo sapiens, UniProt P08684); test: Inhibition of CYP3A4; assay type: ADME
Cytochrome P450 3A4, sequence (P08684 whole entry): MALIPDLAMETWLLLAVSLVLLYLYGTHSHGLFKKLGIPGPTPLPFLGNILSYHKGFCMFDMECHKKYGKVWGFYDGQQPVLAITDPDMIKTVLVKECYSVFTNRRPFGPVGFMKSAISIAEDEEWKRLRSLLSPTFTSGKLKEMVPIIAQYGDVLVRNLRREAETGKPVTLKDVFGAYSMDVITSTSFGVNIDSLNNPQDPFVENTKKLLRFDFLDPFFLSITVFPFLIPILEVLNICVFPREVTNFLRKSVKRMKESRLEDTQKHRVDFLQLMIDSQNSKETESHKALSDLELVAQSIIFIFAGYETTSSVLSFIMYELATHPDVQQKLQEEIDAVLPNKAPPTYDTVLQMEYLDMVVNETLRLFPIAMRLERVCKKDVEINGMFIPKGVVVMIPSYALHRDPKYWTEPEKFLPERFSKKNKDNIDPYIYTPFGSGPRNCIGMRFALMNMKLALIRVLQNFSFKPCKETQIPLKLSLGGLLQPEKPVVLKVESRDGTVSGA

Sodium-dependent serotonin transporter, sequence (P31645 whole entry): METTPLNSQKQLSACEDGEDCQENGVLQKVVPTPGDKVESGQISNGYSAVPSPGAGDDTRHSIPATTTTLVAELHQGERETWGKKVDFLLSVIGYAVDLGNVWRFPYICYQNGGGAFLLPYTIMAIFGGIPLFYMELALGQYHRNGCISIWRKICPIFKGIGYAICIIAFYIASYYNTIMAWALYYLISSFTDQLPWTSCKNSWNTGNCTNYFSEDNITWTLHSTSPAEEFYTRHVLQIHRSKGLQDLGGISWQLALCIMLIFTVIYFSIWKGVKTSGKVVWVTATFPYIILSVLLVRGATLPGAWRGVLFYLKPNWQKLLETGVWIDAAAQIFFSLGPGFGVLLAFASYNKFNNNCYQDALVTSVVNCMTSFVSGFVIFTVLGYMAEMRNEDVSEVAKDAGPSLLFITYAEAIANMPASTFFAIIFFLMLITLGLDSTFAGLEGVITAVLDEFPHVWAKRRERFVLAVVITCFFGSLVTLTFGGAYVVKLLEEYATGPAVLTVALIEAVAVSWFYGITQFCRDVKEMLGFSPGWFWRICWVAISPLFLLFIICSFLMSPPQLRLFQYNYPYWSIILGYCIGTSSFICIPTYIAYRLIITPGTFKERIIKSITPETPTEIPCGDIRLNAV
5-hydroxytryptamine receptor 2A, sequence (P28223 whole entry): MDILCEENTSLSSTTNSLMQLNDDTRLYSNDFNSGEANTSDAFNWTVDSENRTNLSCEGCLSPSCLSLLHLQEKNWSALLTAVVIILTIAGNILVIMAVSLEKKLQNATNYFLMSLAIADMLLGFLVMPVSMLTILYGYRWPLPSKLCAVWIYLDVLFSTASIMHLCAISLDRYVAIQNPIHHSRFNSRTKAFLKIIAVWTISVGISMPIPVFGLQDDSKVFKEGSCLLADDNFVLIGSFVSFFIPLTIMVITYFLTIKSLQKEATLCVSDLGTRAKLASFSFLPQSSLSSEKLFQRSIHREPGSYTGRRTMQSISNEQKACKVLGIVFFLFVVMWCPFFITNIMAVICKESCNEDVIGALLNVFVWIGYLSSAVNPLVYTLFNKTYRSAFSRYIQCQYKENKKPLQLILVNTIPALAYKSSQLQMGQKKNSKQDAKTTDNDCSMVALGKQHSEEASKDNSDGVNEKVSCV
Voltage-gated inwardly rectifying potassium channel KCNH2, sequence (Q12809 whole entry): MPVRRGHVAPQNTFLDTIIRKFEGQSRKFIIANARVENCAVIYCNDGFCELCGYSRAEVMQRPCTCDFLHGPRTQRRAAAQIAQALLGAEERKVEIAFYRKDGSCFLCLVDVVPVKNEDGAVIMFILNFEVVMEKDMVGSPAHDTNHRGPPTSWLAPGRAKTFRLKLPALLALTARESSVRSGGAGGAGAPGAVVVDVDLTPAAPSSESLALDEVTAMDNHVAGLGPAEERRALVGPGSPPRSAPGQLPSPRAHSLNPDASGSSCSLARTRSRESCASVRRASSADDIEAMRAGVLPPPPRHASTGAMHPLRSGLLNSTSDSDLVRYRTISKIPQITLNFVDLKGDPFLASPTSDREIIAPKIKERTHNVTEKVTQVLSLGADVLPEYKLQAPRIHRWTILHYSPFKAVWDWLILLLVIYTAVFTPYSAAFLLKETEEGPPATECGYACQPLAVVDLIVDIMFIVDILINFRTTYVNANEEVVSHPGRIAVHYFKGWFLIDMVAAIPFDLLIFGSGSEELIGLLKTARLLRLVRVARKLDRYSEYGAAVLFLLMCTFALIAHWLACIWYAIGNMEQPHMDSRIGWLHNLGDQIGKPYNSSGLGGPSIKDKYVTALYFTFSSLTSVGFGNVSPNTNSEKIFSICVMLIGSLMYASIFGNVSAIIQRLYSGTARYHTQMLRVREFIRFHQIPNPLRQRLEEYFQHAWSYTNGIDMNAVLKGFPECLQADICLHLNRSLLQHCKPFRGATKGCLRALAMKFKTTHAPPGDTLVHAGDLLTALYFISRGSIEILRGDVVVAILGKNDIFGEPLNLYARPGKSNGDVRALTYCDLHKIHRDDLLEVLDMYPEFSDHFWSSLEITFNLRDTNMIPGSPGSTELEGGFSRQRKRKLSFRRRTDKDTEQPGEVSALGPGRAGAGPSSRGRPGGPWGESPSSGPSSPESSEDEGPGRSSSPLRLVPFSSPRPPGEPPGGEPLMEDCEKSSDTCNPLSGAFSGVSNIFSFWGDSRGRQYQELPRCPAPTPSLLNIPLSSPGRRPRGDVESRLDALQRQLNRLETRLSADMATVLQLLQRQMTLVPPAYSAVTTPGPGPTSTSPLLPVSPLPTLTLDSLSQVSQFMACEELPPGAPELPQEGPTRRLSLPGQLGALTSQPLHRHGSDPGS
Cytochrome P450 2D6, sequence (P10635 whole entry): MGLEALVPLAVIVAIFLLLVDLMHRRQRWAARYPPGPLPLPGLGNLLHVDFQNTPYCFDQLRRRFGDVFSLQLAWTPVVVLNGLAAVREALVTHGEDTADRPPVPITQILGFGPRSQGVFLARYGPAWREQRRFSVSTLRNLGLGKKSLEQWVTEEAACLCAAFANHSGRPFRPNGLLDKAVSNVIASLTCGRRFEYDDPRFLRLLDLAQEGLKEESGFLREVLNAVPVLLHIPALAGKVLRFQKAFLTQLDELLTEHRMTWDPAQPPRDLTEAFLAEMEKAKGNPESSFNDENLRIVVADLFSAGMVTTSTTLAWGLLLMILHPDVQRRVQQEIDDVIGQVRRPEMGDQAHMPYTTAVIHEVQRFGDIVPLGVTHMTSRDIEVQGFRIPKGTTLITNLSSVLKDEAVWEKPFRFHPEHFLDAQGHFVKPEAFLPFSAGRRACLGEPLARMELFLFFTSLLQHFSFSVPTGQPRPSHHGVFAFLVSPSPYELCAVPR
Cytochrome P450 2C9, sequence (P11712 whole entry): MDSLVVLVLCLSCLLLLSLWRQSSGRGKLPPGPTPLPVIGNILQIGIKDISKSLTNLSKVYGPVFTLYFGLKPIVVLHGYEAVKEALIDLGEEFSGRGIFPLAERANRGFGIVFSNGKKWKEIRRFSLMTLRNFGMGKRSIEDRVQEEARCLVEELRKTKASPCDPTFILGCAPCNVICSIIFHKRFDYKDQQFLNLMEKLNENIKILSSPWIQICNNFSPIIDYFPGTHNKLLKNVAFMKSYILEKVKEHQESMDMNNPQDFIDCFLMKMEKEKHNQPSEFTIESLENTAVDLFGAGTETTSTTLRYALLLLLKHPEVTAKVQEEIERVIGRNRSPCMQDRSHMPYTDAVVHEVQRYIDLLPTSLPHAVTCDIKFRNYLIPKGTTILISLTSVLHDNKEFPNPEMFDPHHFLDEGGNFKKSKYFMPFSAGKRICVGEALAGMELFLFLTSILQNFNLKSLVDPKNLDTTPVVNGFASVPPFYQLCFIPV

Row | Structure (SMILES) | Activity (Mus musculus [1]) | IC50 [2] [nM] | IC50 [3] [nM] | IC50 [4] [nM] | Activity (Mus musculus [5]) | Activity (Mus musculus [6]) | IC50 [7] [nM] | IC50 (Cytochrome P450 1A2) [nM] | IC50 (Cytochrome P450 2D6) [nM] | IC50 (Cytochrome P450 2C9) [nM] | IC50 (Cytochrome P450 3A4) [nM]
1 | COc1c(C)nc(C)nc1C(=O)NCCN1CCN(c2cccc(Cl)c2Cl)CC1.Cl | Non-toxic | 263 | 135 | 646 | Non-toxic |  |  |  |  |  | 
2 | Cc1cc(C(=O)NCCCN2CCN(c3cccc(Cl)c3Cl)CC2)nc(C)n1.Cl | Non-toxic | 166 | 610 | 289 |  | Active |  |  |  |  | 
3 | Cc1cc(C(=O)NCCCN2CCN(c3cccc(C)c3C)CC2)nc(C2CC2)n1.Cl | Non-toxic | 256 | 1180 | 347 | Non-toxic |  |  |  |  |  | 
4 | CSc1nc(C)cc(C(=O)NCCCN2CCN(c3cccc(C)c3C)CC2)n1.Cl | Non-toxic | 54 | 1170 | 394 | Non-toxic | Active |  |  |  |  | 
5 | Cc1cc(C(=O)NCCCN2CCN(c3cccc(C)c3C)CC2)nc(C(C)(C)C)n1.Cl | Non-toxic | 274 | 2690 | 537 | Non-toxic |  |  |  |  |  | 
6 | Cc1cc(C(=O)NCCN2CCN(c3cccc(C)c3C)CC2)nc(C(C)(C)C)n1.Cl | Non-toxic | 69 | 494 | 6370 | Non-toxic |  |  |  |  |  | 
7 | COc1c(C)nc(C)nc1C(=O)NCCN1CCN(c2cccc(C)c2C)CC1.Cl | Non-toxic | 842 | 1270 | 2100 | Non-toxic |  |  |  |  |  | 
8 | Cc1nc(C(=O)NCCCN2CCN(c3cccc(Cl)c3Cl)CC2)cc(C(C)C)n1.Cl | Non-toxic | 113 | 227 | 644 | Non-toxic | Active | 5400 |  |  |  | 
9 | COc1c(C)nc(C)nc1C(=O)NCCCN1CCN(c2cccc(C)c2C)CC1.Cl |  | 744 | 2050 | 892 | Toxic |  |  |  |  |  | 
10 | Cc1nc(C(=O)NCCCN2CCN(c3cccc(C)c3C)CC2)cc(C(C)(C)C)n1.Cl | Non-toxic | 458 | 575 | 730 | Non-toxic |  | 5900 |  |  |  | 
11 | Cc1nc(C(=O)NCCCN2CCN(c3cccc(C)c3C)CC2)cc(C(C)C)n1.Cl | Non-toxic | 490 | 1550 | 1210 | Non-toxic |  |  |  |  |  | 
12 | CSc1nc(C)cc(C(=O)NCCN2CCN(c3cccc(C)c3C)CC2)n1.Cl | Non-toxic | 47 | 148 | 1010 | Non-toxic | Active |  | > 20000 | > 20000 | > 20000 | > 20000
13 | CSc1nc(C)cc(C(=O)NCCN2CCN(c3cccc(Cl)c3Cl)CC2)n1.Cl | Non-toxic | 55 | 81 | 881 | Non-toxic | Active |  |  |  |  | 
14 | Cc1nc(C(=O)NCCCN2CCN(c3cccc(Cl)c3Cl)CC2)cc(-c2ccccc2)n1 |  | 35 | 30 | 588 |  |  |  |  |  |  | 
